From ChEMBL document CHEMBL1201862, “PubChem BioAssay data set” (2004)
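The compound was tested at five concentrations on cells cultured in 96-well plates, with a 48-hour exposure period. GI50 is the concentration that inhibits growth by half.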 The source made the active and inactive calls. No stated cut-off is given here; in the data, active = GI50 up to about 1.1 µM and inactive = higher.

Experiments:
Assay in all cases: NCI tumour cell line growth inhibition, 48 h
786-0 = system: 786-0
A498 = system: A498
A549 = system: A549
CAKI-1 = system: CAKI-1
CCRF-CEM = system: CCRF-CEM
COLO 205 = system: COLO 205
DLD-1 = system: DLD-1
DMS-114 = system: DMS-114
DMS-273 = system: DMS-273
EKVX = system: EKVX
HCC 2998 = system: HCC 2998
HCT-116 = system: HCT-116
HCT-15 = system: HCT-15
HL-60 = system: HL-60
HOP-18 = system: HOP-18
HOP-62 = system: HOP-62
HT-29 = system: HT-29
IGROV-1 = system: IGROV-1
K562 = system: K562
KM-20L2 = system: KM-20L2
KM12 = system: KM12
LOX IMVI = system: LOX IMVI
LXFL 529 = system: LXFL 529
M14 = system: M14
M19-MEL = system: M19-MEL
MOLT-4 = system: MOLT-4
Malme-3M = system: Malme-3M
NCI-H226 = system: NCI-H226
NCI-H23 = system: NCI-H23
NCI-H460 = system: NCI-H460
NCI-H522 = system: NCI-H522
OVCAR-3 = system: OVCAR-3
OVCAR-4 = system: OVCAR-4
OVCAR-5 = system: OVCAR-5
OVCAR-8 = system: OVCAR-8
RPMI-8226 = system: RPMI-8226
RXF 393 = system: RXF 393
SF-268 = system: SF-268
SF-295 = system: SF-295
SF-539 = system: SF-539
SK-MEL-28 = system: SK-MEL-28
SK-MEL-2 = system: SK-MEL-2
SK-MEL-5 = system: SK-MEL-5
SK-OV-3 = system: SK-OV-3
SNB-19 = system: SNB-19
SNB-75 = system: SNB-75
SNB-78 = system: SNB-78
SW-620 = system: SW-620
TK-10 = system: TK-10
U-251 = system: U-251
UACC-257 = system: UACC-257
UACC-62 = system: UACC-62
UO-31 = system: UO-31
ACHN = system: ACHN
HOP-92 = system: HOP-92
SN12C = system: SN12C
XF498 = system: XF498

## CCO/C([O-])=C(/C=O)[n+]1c(C)n(C)c2ccccc21
786-0
  GI50: > 100 µM (inactive)
A498
  GI50: > 100 µM (inactive)
A549
  GI50: > 100 µM (inactive)
CAKI-1
  GI50: > 100 µM (inactive)
CCRF-CEM
  GI50: > 100 µM (inactive)
COLO 205
  GI50: > 100 µM (inactive)
DLD-1
  GI50: > 100 µM (inactive)
DMS-114
  GI50: > 100 µM (inactive)
DMS-273
  GI50: > 100 µM (inactive)
EKVX
  GI50: > 100 µM (inactive)
HCC 2998
  GI50: > 100 µM (inactive)
HCT-116
  GI50: > 100 µM (inactive)
HCT-15
  GI50: > 100 µM
HL-60
  GI50: > 100 µM (inactive)
HOP-18
  GI50: > 100 µM (inactive)
HOP-62
  GI50: > 100 µM (inactive)
HT-29
  GI50: > 100 µM (inactive)
IGROV-1
  GI50: > 100 µM (inactive)
K562
  GI50: > 100 µM (inactive)
KM-20L2
  GI50: > 100 µM (inactive)
KM12
  GI50: > 100 µM (inactive)
LOX IMVI
  GI50: > 100 µM (inactive)
LXFL 529
  GI50: > 100 µM (inactive)
M14
  GI50: > 100 µM (inactive)
M19-MEL
  GI50: > 100 µM (inactive)
MOLT-4
  GI50: > 100 µM (inactive)
Malme-3M
  GI50: > 100 µM (inactive)
NCI-H226
  GI50: > 100 µM (inactive)
NCI-H23
  GI50: > 100 µM (inactive)
NCI-H460
  GI50: > 100 µM (inactive)
NCI-H522
  GI50: > 100 µM (inactive)
OVCAR-3
  GI50: > 100 µM (inactive)
OVCAR-4
  GI50: > 100 µM (inactive)
OVCAR-5
  GI50: > 100 µM (inactive)
OVCAR-8
  GI50: > 100 µM (inactive)
RPMI-8226
  GI50: > 100 µM (inactive)
RXF 393
  GI50: > 100 µM (inactive)
SF-268
  GI50: > 100 µM (inactive)
SF-295
  GI50: > 100 µM (inactive)
SF-539
  GI50: > 100 µM (inactive)
SK-MEL-28
  GI50: > 100 µM (inactive)
SK-MEL-2
  GI50: > 100 µM (inactive)
SK-MEL-5
  GI50: > 100 µM (inactive)
SK-OV-3
  GI50: > 100 µM (inactive)
SNB-19
  GI50: > 100 µM (inactive)
SNB-75
  GI50: > 100 µM (inactive)
SNB-78
  GI50: > 100 µM (inactive)
SW-620
  GI50: > 100 µM (inactive)
TK-10
  GI50: > 100 µM (inactive)
U-251
  GI50: > 100 µM (inactive)
UACC-257
  GI50: > 100 µM (inactive)
UACC-62
  GI50: > 100 µM (inactive)
UO-31
  GI50: > 100 µM (inactive)

## O=C(O)/C=C/c1nc2ccccc2c(=O)o1
786-0
  GI50: > 100 µM (inactive)
A549
  GI50: > 100 µM (inactive)
ACHN
  GI50: > 100 µM (inactive)
CCRF-CEM
  GI50: 77.3 µM (inactive)
COLO 205
  GI50: > 100 µM (inactive)
DLD-1
  GI50: > 100 µM (inactive)
DMS-114
  GI50: > 100 µM (inactive)
DMS-273
  GI50: > 100 µM (inactive)
EKVX
  GI50: > 100 µM (inactive)
HCC 2998
  GI50: > 100 µM (inactive)
HCT-116
  GI50: > 100 µM (inactive)
HCT-15
  GI50: > 100 µM
HL-60
  GI50: > 100 µM (inactive)
HOP-18
  GI50: > 100 µM (inactive)
HOP-92
  GI50: > 100 µM (inactive)
HT-29
  GI50: > 100 µM (inactive)
IGROV-1
  GI50: > 100 µM (inactive)
K562
  GI50: > 100 µM (inactive)
KM-20L2
  GI50: > 100 µM (inactive)
KM12
  GI50: > 100 µM (inactive)
LOX IMVI
  GI50: > 100 µM (inactive)
LXFL 529
  GI50: > 100 µM (inactive)
M14
  GI50: > 100 µM (inactive)
M19-MEL
  GI50: > 100 µM (inactive)
MOLT-4
  GI50: > 100 µM (inactive)
NCI-H226
  GI50: > 100 µM (inactive)
NCI-H23
  GI50: > 100 µM (inactive)
NCI-H522
  GI50: > 100 µM (inactive)
OVCAR-3
  GI50: > 100 µM (inactive)
OVCAR-4
  GI50: > 100 µM (inactive)
OVCAR-8
  GI50: > 100 µM (inactive)
RPMI-8226
  GI50: > 100 µM (inactive)
SF-295
  GI50: > 100 µM (inactive)
SF-539
  GI50: > 100 µM (inactive)
SK-MEL-28
  GI50: > 100 µM (inactive)
SK-MEL-2
  GI50: > 100 µM (inactive)
SK-MEL-5
  GI50: > 100 µM (inactive)
SK-OV-3
  GI50: > 100 µM (inactive)
SN12C
  GI50: > 100 µM (inactive)
SNB-19
  GI50: > 100 µM (inactive)
SNB-75
  GI50: > 100 µM (inactive)
SNB-78
  GI50: > 100 µM (inactive)
SW-620
  GI50: > 100 µM (inactive)
TK-10
  GI50: > 100 µM (inactive)
U-251
  GI50: > 100 µM (inactive)
UACC-62
  GI50: > 100 µM (inactive)
UO-31
  GI50: > 100 µM (inactive)

## COc1cc2cnc3c4ccccc4ccc3c2cc1OC
786-0
  GI50: > 100 µM (inactive)
A498
  GI50: > 100 µM (inactive)
A549
  GI50: > 100 µM (inactive)
ACHN
  GI50: > 100 µM (inactive)
CAKI-1
  GI50: > 100 µM (inactive)
CCRF-CEM
  GI50: > 100 µM (inactive)
COLO 205
  GI50: > 100 µM (inactive)
DLD-1
  GI50: > 100 µM (inactive)
DMS-114
  GI50: > 100 µM (inactive)
EKVX
  GI50: 6.73 µM (inactive)
HCC 2998
  GI50: > 100 µM (inactive)
HOP-62
  GI50: > 100 µM (inactive)
HT-29
  GI50: > 100 µM (inactive)
IGROV-1
  GI50: > 100 µM (inactive)
K562
  GI50: > 100 µM (inactive)
KM-20L2
  GI50: > 100 µM (inactive)
KM12
  GI50: > 100 µM (inactive)
LXFL 529
  GI50: > 100 µM (inactive)
M14
  GI50: > 100 µM (inactive)
M19-MEL
  GI50: > 100 µM (inactive)
MOLT-4
  GI50: > 100 µM (inactive)
Malme-3M
  GI50: > 100 µM (inactive)
NCI-H23
  GI50: > 100 µM (inactive)
NCI-H460
  GI50: > 100 µM (inactive)
NCI-H522
  GI50: > 100 µM (inactive)
OVCAR-3
  GI50: > 100 µM (inactive)
OVCAR-4
  GI50: > 100 µM (inactive)
OVCAR-5
  GI50: > 100 µM (inactive)
OVCAR-8
  GI50: > 100 µM (inactive)
RPMI-8226
  GI50: > 100 µM (inactive)
SF-268
  GI50: > 100 µM (inactive)
SF-295
  GI50: > 100 µM (inactive)
SK-MEL-28
  GI50: > 100 µM (inactive)
SK-MEL-2
  GI50: > 100 µM (inactive)
SK-MEL-5
  GI50: > 100 µM (inactive)
SK-OV-3
  GI50: > 100 µM (inactive)
SN12C
  GI50: > 100 µM (inactive)
SNB-19
  GI50: > 100 µM (inactive)
SNB-75
  GI50: > 100 µM (inactive)
SNB-78
  GI50: > 100 µM (inactive)
SW-620
  GI50: > 100 µM (inactive)
TK-10
  GI50: > 100 µM (inactive)
U-251
  GI50: > 100 µM (inactive)
UACC-257
  GI50: > 100 µM (inactive)
UACC-62
  GI50: > 100 µM (inactive)
UO-31
  GI50: > 100 µM (inactive)
XF498
  GI50: > 100 µM (inactive)
